Source: patent US12583892B2 (priority 2020, dated 2026)

System: NMDAR-dependent EPSCs
Assay type: cell-based, rat

## CC(C(O)c1ccc(O)cc1)N1CCC(Cc2ccccc2)CC1 (stereo not shown) [ifenprodil]
  NMDARs-dependent EPSCs, young neurons: inhibition
